Measured values from US11434479B2, “Sialic acid binding polypeptide” (priority 2017, dated 2022).
Changes are numbered by the printed parent chain.

Legend:
SNA (S. Nigra lectin) = conditions: reported values [16]; cited from earlier work
[1] = molecular target: T1, Streptococcus pneumoniae NanB fragment (residues 30-697, SEQ ID NO:4) variant Sia-PS5, E541Q (Streptococcus pneumoniae serotype 4, UniProt Q54727, E541Q); assay: Bio-layer Interferometry (BLI) steady-state binding to immobilized oligosaccharides; conditions: in words
T1 construct: exemplified by a NanB fragment (residues 30-697); poly-histidine; made in house; host or cells: pET28a+ based plasmid
T1 sequence (Q54727 30-692 E541Q): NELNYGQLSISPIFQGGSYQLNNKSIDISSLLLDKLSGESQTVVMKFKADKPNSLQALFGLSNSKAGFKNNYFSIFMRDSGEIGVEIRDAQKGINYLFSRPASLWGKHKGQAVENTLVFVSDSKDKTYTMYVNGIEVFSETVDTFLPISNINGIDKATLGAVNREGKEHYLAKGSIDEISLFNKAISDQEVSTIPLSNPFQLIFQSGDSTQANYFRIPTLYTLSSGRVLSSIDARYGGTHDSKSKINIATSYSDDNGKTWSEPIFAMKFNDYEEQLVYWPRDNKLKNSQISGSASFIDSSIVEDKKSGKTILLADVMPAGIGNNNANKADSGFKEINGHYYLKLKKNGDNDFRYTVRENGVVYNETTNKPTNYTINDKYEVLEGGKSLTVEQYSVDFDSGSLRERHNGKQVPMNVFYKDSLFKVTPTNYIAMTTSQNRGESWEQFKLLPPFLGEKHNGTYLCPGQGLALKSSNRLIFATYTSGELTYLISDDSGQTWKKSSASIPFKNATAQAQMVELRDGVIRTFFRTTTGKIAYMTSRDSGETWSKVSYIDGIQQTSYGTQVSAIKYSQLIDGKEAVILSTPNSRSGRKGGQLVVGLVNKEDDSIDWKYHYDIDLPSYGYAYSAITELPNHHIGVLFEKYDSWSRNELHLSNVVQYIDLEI
Source text: Lsp=lactose (no sialic acid), 3′SL=α2,3-sialyllactose, 6′SL=α2,6-sialyllactose, GD3=GD3 oligosaccharide that contains a terminal α2,8-linked Neu5Ac residue and an internal α2,3-linked Neu5Ac residue.
The pan-specific sialic acid-recognizing affinity reagent of the invention is exemplified by a NanB fragment (residues 30-697; SEQ ID NO:4) with a single mutation. Exemplary mutation sites include Y653, D270, and E541. Exemplary pan-specific affinity reagents, each having a single mutation in the NanB GH domain as noted, are shown in Table 2 and include Sia-PS1 (Y653F), Sia-PS2 (D270A), Sia-PS3 (D270N), Sia-PS4 (E541A), and Sia-PS5 (E541Q). […] They reduce (Sia-PS2 and Sia-PS3) or effectively eliminate (Sia-PS1, Sia-PS4, and Sia-PS5) catalytic activity, and they broaden specificity for sialic acid ligand binding. The pan-specific sialic acid-recognizing affinity reagent we chose for further validation study was Sia-PS1 that contains the Y653F at active site residue Tyr653. This one mutation, which involves removal of a single hydroxyl group, not only eliminates enzyme activity, but astonishingly introduces pan-specific binding into the mutated, inactivated enzyme, despite its distance from the carbohydrate binding module (CBM) domain of the NanB.
(§1) The flowchart presented in FIG. 2 outlines schematically the methods employed in Example I and II to screen, optimize and select the Lectenz® candidates. The specificity and affinity of potential Lectenz® candidates is evaluated through structurally-guided site-specific and/or site-saturation mutagenesis assays designed to enable the selection of optimal clones. Bio-layer Interferometry (BLI) is used to determine the binding kinetics and affinities for binding to glycans and glycoproteins. Affinity chromatography is performed by immobilizing the Lectenz® candidates in a column format to evaluate their ability to fractionate sialylated- and asialo-glycans and glycoconjugates. All promising Lectenz® candidates are screened against the glycan array at the CFG, which currently contains over 600 O- and N-linked glycans.
Steady-state binding constants between Lectenz® candidates and sialic acid ligands were measured by BLI.

[2] = molecular target: MAL (Maackia amurensis leukoagglutinin); conditions: reported values [16, 17]; cited from earlier work
[3] = molecular target: T2, Streptococcus pneumoniae NanB fragment (residues 30-697, SEQ ID NO:4) variant Sia-3S1, R193A, D270Q, A538V, E541D (Streptococcus pneumoniae serotype 4, UniProt Q54727, A538V/D270Q/E541D/R193A); assay: Bio-layer Interferometry (BLI) binding to immobilized 3′SL and 6′SL; conditions: in words, well-defined buffer conditions (10 mM EPPS, 10 or 25 mM NaCl, pH 7.5)
T2 construct: exemplified by a NanB fragment (residues 30-697); made in house; host or cells: E. coli
T2 sequence (Q54727 30-692 R193A/D270Q/A538V/E541D): T1 sequence (Q54727 30-692 E541Q) with R164A, D241Q, A509V, Q512D
Procedure: FIGS. 14A and […] show BLI sensograms for the binding of Sia-3S1 (analyte) under different buffer conditions to oligosaccharides (immobilized ligands): 3′SL=α2,3-sialyllactose, 6′SL=α2,6-sialyllactose.
as §1
The methods are as described in Example I.

Row | Structure (SMILES) | Kd (SNA (S. Nigra lectin)) [nM] | binding affinity [1] | Kd [2] [nM] | affinity [3]
1 | CC(=O)N[C@H]1[C@H]([C@H](O)[C@H](O)CO)O[C@@](OC[C@H]2O[C@@H](O[C@H]3[C@H](O)[C@@H](O)C(O)O[C@@H]3CO)[C@H](O)[C@@H](O)[C@H]2O)(C(=O)O)C[C@@H]1O (stereo partly drawn) [6′SL, 6′-sialyllactose (Neu5Acα2,6Galβ1, 4Glcβ, or 6′SL)] | 600 to 900 | micromolar or sub-micromolar | – | –
2 | CC(=O)N[C@H]1[C@H]([C@H](O)[C@H](O)CO)O[C@@](O[C@H]2[C@@H](O)[C@@H](CO)O[C@@H](O[C@H]3[C@H](O)[C@@H](O)C(O)O[C@@H]3CO)[C@@H]2O)(C(=O)O)C[C@@H]1O (stereo partly drawn) [3′SL, α2,3-sialyllactose] | – | micromolar or sub-micromolar | 1000 to 3000 | high and preferential affinity for 3′SL over 6′SL
3 | CC(=O)N[C@H]1[C@H]([C@H](O)[C@H](O)CO)O[C@@](O[C@H](CO)[C@@H](O)[C@@H]2O[C@@](O[C@H]3[C@@H](O)[C@@H](CO)O[C@@H](O[C@H]4[C@H](O)[C@@H](O)C(O)O[C@@H]4CO)[C@@H]3O)(C(=O)O)C[C@H](O)[C@H]2NC(C)=O)(C(=O)O)C[C@@H]1O (stereo partly drawn) [GD3, Neu5Acα2,8Neu5Acα2,3Galβ1, 4Glcβ] | – | micromolar or sub-micromolar | – | –
